In US9969749B2, “Inhibitors of IRAK4 activity” (MERCK SHARP & DOHME CORP., priority 2014, dated 2018):

molecular target: IRAK4 (Homo sapiens (Human), UniProt Q9NWZ3); assay: IRAK4 Kinase Assay (IMAP fluorescence polarization); type: biochemical; conditions: 0.5 nM GST tagged IRAK4, 100 μM ATP, 100 nM fluorescent peptide substrate RP7030, 30 minutes at 25° C.
How it was run: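 GST-tagged IRAK4 (0.5 nM) phosphorylates 100 nM fluorescent peptide with 100 μM ATP in 10 mM Tris pH 7.2, 1 mM MgCl2, 1 mM DTT, 0.01% Tween 20 for 30 min at 25 °C. Phosphorylation read as IMAP nanoparticle-binding fluorescence polarization after stop reagent.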

IRAK4, sequence (Q9NWZ3 whole entry): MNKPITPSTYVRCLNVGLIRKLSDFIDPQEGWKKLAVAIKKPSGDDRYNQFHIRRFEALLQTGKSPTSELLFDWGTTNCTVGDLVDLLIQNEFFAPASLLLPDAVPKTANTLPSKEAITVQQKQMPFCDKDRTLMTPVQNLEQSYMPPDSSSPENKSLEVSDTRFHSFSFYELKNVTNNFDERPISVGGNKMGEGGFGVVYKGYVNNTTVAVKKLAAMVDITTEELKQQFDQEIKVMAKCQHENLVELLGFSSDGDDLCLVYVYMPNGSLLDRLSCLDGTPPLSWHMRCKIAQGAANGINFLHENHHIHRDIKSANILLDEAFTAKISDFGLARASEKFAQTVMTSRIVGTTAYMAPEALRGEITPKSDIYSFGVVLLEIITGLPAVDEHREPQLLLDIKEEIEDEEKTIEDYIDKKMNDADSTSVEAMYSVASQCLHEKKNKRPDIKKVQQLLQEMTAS

IC50 [µM]	SMILES
6.03	CCOC(=O)c1cn(C)nc1-c1ccc2ncnc(N[C@H]3CC[C@H](N4CCOCC4)CC3)c2c1 [Example 2-1, Ethyl 1-methyl-3-(4-(((trans)-4-morpholinocyclohexyl)amino)quinazolin-6-yl)-1H-pyrazole-4-carboxylate]
0.092	Cc1nc(-c2ccc3ncnc(N[C@H]4CC[C@H](N5CCOCC5)CC4)c3c2)cs1 [Example 2-2, 6-(2-methyl-1,3-thiazol-4-yl)-N-(trans-4-morpholin-4-ylcyclohexyl)quinazolin-4-amine]
0.39	CC(C)c1nc(-c2ccc3ncnc(N[C@H]4CC[C@H](N5CCOCC5)CC4)c3c2)cs1 [Example 2-3, 6-[2-(1-methylethyl)-1,3-thiazol-4-yl]-N-(trans-4-morpholin-4-ylcyclohexyl)quinazolin-4-amine]
0.119	FC(F)(F)c1cncc(-c2ccc3ncnc(N[C@H]4CC[C@H](N5CCOCC5)CC4)c3c2)c1 [Example 2-4, N-(trans-4-morpholin-4-ylcyclohexyl)-6-[5-(trifluoromethyl)pyridin-3-yl]quinazolin-4-amine]
0.928	Oc1ncc(C(F)(F)F)cc1-c1ccc2ncnc(N[C@H]3CC[C@H](N4CCOCC4)CC3)c2c1 [Example 2-5, 3-{4-[(trans-4-morpholin-4-ylcyclohexyl)amino]quinazolin-6-yl}-5-(trifluoromethyl)pyridin-2-ol]
0.001	Nc1cc(-c2ccc3ncnc(N[C@H]4CC[C@H](N5CCOCC5)CC4)c3c2)cnc1F [Example 2-7, 6-(5-amino-6-fluoropyridin-3-yl)-N-(trans-4-morpholin-4-ylcyclohexyl)quinazolin-4-amine]
0.122	O=C(O)c1cccc(-c2ccc3ncnc(N[C@H]4CC[C@H](N5CCOCC5)CC4)c3c2)n1 [Example 2-8, 6-{4-[(trans-4-morpholin-4-ylcyclohexyl)amino]quinazolin-6-yl}pyridine-2-carboxylic acid]
0.012	Fc1c[nH]nc1-c1ccc2ncnc(N[C@H]3CC[C@H](N4CCOCC4)CC3)c2c1 [Example 2-9, 6-(4-fluoro-1H-pyrazol-3-yl)-N-(trans-4-morpholin-4-ylcyclohexyl)quinazolin-4-amine]
0.008	N#Cc1n[nH]cc1-c1ccc2ncnc(N[C@H]3CC[C@H](N4CCOCC4)CC3)c2c1 [Example 2-10, 4-{4-[(trans-4-morpholin-4-ylcyclohexyl)amino]quinazolin-6-yl}-1H-pyrazole-3-carbonitrile]
0.062	N#Cc1nn[nH]c1-c1ccc2ncnc(N[C@H]3CC[C@H](N4CCOCC4)CC3)c2c1 [Example 2-11, 5-{4-[(trans-4-morpholin-4-ylcyclohexyl)amino]quinazolin-6-yl}-1H-1,2,3-triazole-4-carbonitrile]
0.261	Cn1cc(-c2ccc3ncnc(N[C@H]4CC[C@H](N5CCOCC5)CC4)c3c2)c(CO)n1 [Example 2-12, (1-methyl-4-{4-[(trans-4-morpholin-4-ylcyclohexyl)amino]quinazolin-6-yl}-1H-pyrazol-3-yl)methanol]
0.324	Cn1nccc1-c1ccc2ncnc(N[C@H]3CC[C@H](N4CCOCC4)CC3)c2c1 [Example 2-13, 6-(1-methyl-1H-pyrazol-5-yl)-N-(trans-4-morpholin-4-ylcyclohexyl)quinazolin-4-amine]
0.08	FC(F)(F)c1n[nH]cc1-c1ccc2ncnc(N[C@H]3CC[C@H](N4CCOCC4)CC3)c2c1 [Example 2-14, N-(trans-4-morpholin-4-ylcyclohexyl)-6-[3-(trifluoromethyl)-1H-pyrazol-4-yl]quinazolin-4-amine]
0.152	Cn1nncc1-c1ccc2ncnc(N[C@H]3CC[C@H](N4CCOCC4)CC3)c2c1 [Example 2-15, 6-(1-methyl-1H-1,2,3-triazol-5-yl)-N-(trans-4-morpholin-4-ylcyclohexyl)quinazolin-4-amine]
0.048	c1nc(N[C@H]2CC[C@H](N3CCOCC3)CC2)c2cc(-c3cnc4c(c3)NCC4)ccc2n1 [Example 2-16, 6-(2,3-dihydro-1H-pyrrolo[3,2-b]pyridin-6-yl)-N-[trans-4-(morpholin-4-yl)cyclohexyl]quinazolin-4-amine]
0.041	N#Cc1sccc1-c1ccc2ncnc(N[C@H]3CC[C@H](N4CCOCC4)CC3)c2c1 [Example 2-17, 3-(4-{[trans-4-(morpholin-4-yl)cyclohexyl]amino}quinazolin-6-yl)thiophene-2-carbonitrile]
0.052	N#Cc1cscc1-c1ccc2ncnc(N[C@H]3CC[C@H](N4CCOCC4)CC3)c2c1 [Example 2-18, 4-(4-{[trans-4-(morpholin-4-yl)cyclohexyl]amino}quinazolin-6-yl)thiophene-3-carbonitrile]
0.184	Cc1nc[nH]c1-c1ccc2ncnc(N[C@H]3CC[C@H](N4CCOCC4)CC3)c2c1 [Example 2-19, 6-(4-methyl-1H-imidazol-5-yl)-N-[trans-4-(morpholin-4-yl)cyclohexyl]quinazolin-4-amine]
0.022	Cc1n[nH]cc1-c1ccc2ncnc(N[C@H]3CC[C@H](N4CCOCC4)CC3)c2c1 [Example 2-20, 6-(3-methyl-1H-pyrazol-4-yl)-N-[trans-4-(morpholin-4-yl)cyclohexyl]quinazolin-4-amine]
0.126	Cc1c(-c2ccc3ncnc(N[C@H]4CC[C@H](N5CCOCC5)CC4)c3c2)cnn1C [Example 2-21, 6-(1,5-dimethyl-1H-pyrazol-4-yl)-N-[trans-4-(morpholin-4-yl)cyclohexyl]quinazolin-4-amine]
0.492	Cc1c[nH]c(-c2ccc3ncnc(N[C@H]4CC[C@H](N5CCOCC5)CC4)c3c2)n1 [Example 2-22, 6-(4-methyl-1H-imidazol-2-yl)-N-[trans-4-(morpholin-4-yl)cyclohexyl]quinazolin-4-amine]
1.19	Cc1cn(C)c(-c2ccc3ncnc(N[C@H]4CC[C@H](N5CCOCC5)CC4)c3c2)n1 [Example 2-23, 6-(1,4-dimethyl-1H-imidazol-2-yl)-N-[trans-4-(morpholin-4-yl)cyclohexyl]quinazolin-4-amine]
0.104	Cc1n[nH]c(C)c1-c1ccc2ncnc(N[C@H]3CC[C@H](N4CCOCC4)CC3)c2c1 [Example 2-24, 6-(3,5-dimethyl-1H-pyrazol-4-yl)-N-[trans-4-(morpholin-4-yl)cyclohexyl]quinazolin-4-amine]
0.088	Cc1nc(-c2ccc3ncnc(N[C@H]4CC[C@H](N5CCOCC5)CC4)c3c2)c[nH]1 [Example 2-25, 6-(2-methyl-1H-imidazol-4-yl)-N-[trans-4-(morpholin-4-yl)cyclohexyl]quinazolin-4-amine]

The remaining lines, values behind:

SMILES	IC50 [µM]
c1cc(-c2ccc3ncnc(N[C@H]4CC[C@H](N5CCOCC5)CC4)c3c2)c2cc[nH]c2c1 [Example 1-88, 6-(1H-indol-4-yl)-N-[trans-4-(morpholin-4-yl)cyclohexyl]quinazolin-4-amine]	0.1
Cc1ncc(-c2ccc3ncnc(N[C@H]4CC[C@H](N5CCOCC5)CC4)c3c2)cn1 [Example 1-89, 6-(2-methylpyrimidin-5-yl)-N-[trans-4-(morpholin-4-yl)cyclohexyl]quinazolin-4-amine]	0.018
FC(F)(F)c1ncc(-c2ccc3ncnc(N[C@H]4CC[C@@H](N5CCOCC5)CC4)c3c2)cn1 [Example 1-90, N-[cis-4-(morpholin-4-yl)cyclohexyl]-6-[2-(trifluoromethyl)pyrimidin-5-yl]quinazolin-4-amine]	0.169
c1nc(N[C@H]2CC[C@H](N3CCOCC3)CC2)c2cc(-c3cc[nH]n3)ccc2n1 [Example 1-91, N-[trans-4-(morpholin-4-yl)cyclohexyl]-6-(1H-pyrazol-3-yl)quinazolin-4-amine]	0.02
CS(=O)(=O)Nc1cncc(-c2ccc3ncnc(N[C@H]4CC[C@H](N5CCOCC5)CC4)c3c2)c1 [Example 1-92, N-[5-(4-{[trans-4-(morpholin-4-yl)cyclohexyl]amino}quinazolin-6-yl)pyridin-3-yl]methanesulfonamide]	0.024
Cc1cncc(-c2ccc3ncnc(N[C@H]4CC[C@H](N5CCOCC5)CC4)c3c2)c1 [Example 1-93, 6-(5-methylpyridin-3-yl)-N-[trans-4-(morpholin-4-yl)cyclohexyl]quinazolin-4-amine]	0.026
OCc1cncc(-c2ccc3ncnc(N[C@H]4CC[C@H](N5CCOCC5)CC4)c3c2)c1 [Example 1-94, [5-(4-{[trans-4-(morpholin-4-yl)cyclohexyl]amino}quinazolin-6-yl)pyridin-3-yl]methanol]	0.01
CC(C)(O)c1cncc(-c2ccc3ncnc(N[C@H]4CC[C@H](N5CCOCC5)CC4)c3c2)c1 [Example 1-95, 2-[5-(4-{[trans-4-(morpholin-4-yl)cyclohexyl]amino}quinazolin-6-yl)pyridin-3-yl]propan-2-ol]	0.33
c1nc(N[C@H]2CC[C@H](N3CCOCC3)CC2)c2cc(-c3cnoc3)ccc2n1 [Example 1-96, 6-(isoxazol-4-yl)-N-[trans-4-(morpholin-4-yl)cyclohexyl]quinazolin-4-amine]	0.009
Fc1cncc(-c2ccc3ncnc(N[C@H]4CC[C@H](N5CCOCC5)CC4)c3c2)c1 [Example 1-97, 6-(5-fluoropyridin-3-yl)-N-[trans-4-(morpholin-4-yl)cyclohexyl]quinazolin-4-amine]	0.022
N#Cc1cncc(-c2ccc3ncnc(N[C@H]4CC[C@H](N5CCOCC5)CC4)c3c2)c1 [Example 1-98, 5-(4-{[trans-4-(morpholin-4-yl)cyclohexyl]amino}quinazolin-6-yl)pyridine-3-carbonitrile]	0.021
Clc1cncc(-c2ccc3ncnc(N[C@H]4CC[C@H](N5CCOCC5)CC4)c3c2)c1 [Example 1-99, 6-(5-chloropyridin-3-yl)-N-[trans-4-(morpholin-4-yl)cyclohexyl]quinazolin-4-amine]	0.011
Oc1cc(-c2ccc3ncnc(N[C@H]4CC[C@H](N5CCOCC5)CC4)c3c2)cnc1Cl [Example 1-100, 2-chloro-5-(4-{[trans-4-(morpholin-4-yl)cyclohexyl]amino}quinazolin-6-yl)pyridin-3-ol]	0.001
